Experimental data reported in patent US11787785B2 (NOVARTIS AG, priority 2021, dated 2023).

Target: T1, WIZ protein (HiBit-WIZ fusion protein) (Homo sapiens, UniProt O95785+Q96SW2)
T1 construct: expressed in transfected cells
Test: Quantification of WIZ protein levels in HiBit tag fusion protein assay (WIZ HiBit assay in 293T cells)
Assay type: cell-based
Conditions: for Dmax at 25 µM / remaining activity at 25 µM: HEK-293T, 293T cells; for Dmax at 25 µM: 100 − Amax, read-out: % degradation of WIZ (100 − Amax); for remaining activity at 25 µM: DMSO-normalized, curve-fitted percentage of WIZ-HiBit remaining at 25 uM, read-out: WIZ Amax; for DC50: WIZ HiBit assay in 293T cells, 10-point, 5-fold dose response, highest concentration 25 μM, about 18 hours, read-out: WIZ AC50
Method: The HiBit system from Promega was used to develop high-throughput and quantitative assays to measure changes in WIZ protein levels in response to compounds. The HiBit tag was derived from a split Nanoluciferase and has the following protein sequence: […] (SEQ ID NO: 1). The complementary fragment of Nanoluciferase (known as LgBit, from Promega), was added to the HiBit tag to form an active Nanoluciferase enzyme whose activity can be precisely measured. In this way, the levels of a fusion protein with the HiBit tag can be quantified in cell lysates.
Lentiviral vectors, based on the Invitrogen™ pLenti6.2/V5 DEST backbone were constructed that places the HiBit tag upstream of WIZ and expressed the fusion protein from an HSVTK promotor.
To ensure moderate and consistent expression of the HiBit-WIZ fusion protein across all cells in the population, stable cell lines were constructed from cells harboring a single copy of the construct. Lentivirus packaged with the constructs were made using the ViraPower™ kit from Invitrogen™. 293T cells from ATCC (Catalog number: CRL-3216), were infected with the virus at low multiplicity of infection and selected by 5 μg/mL blasticidin in culture media for 2 weeks.
The levels of HiBit-WIZ tagged fusion proteins in compound-treated cell lines were measured as follows:
On day 1, cells were diluted to 1.0×10^6 cells/ml in normal growth medium. 20 μL of cell suspension were plated in each well of a solid white 384-well plate. Plates were incubated overnight in a 37° C. and 5% CO2 humidified tissue culture incubator.
On day 2, serial dilutions of compounds were made in 384-well plates. Compound plates were set up with DMSO in columns 1, 2, 23, 24, and 10-point compound dilution series in column 3-12 and column 13-22. 10 mM stock solution of compound were placed into column 3 or 13 and a 1:5 serial dilution was carried out until there was a 10-point dilution series per compound. 50 nL of diluted compounds were transferred into the plated cells by Echo® (Labcyte) acoustic transfer. The highest concentration of compound was 25 μM. Plates were incubated overnight (about 18 hours) in a 37° C. and 5% CO2 humidified tissue culture incubator.
On day 3, plates were removed from the incubator and allowed to equilibrate at room temperature for 60 minutes. HiBit substrate (Nano-Glo® HiBit Lytic Detection System, Promega Catalogue number: N3050) was added as described by the manufacturers protocols. Plates were incubated at room temperature for 30 minutes and luminescence was read using an EnVision® reader (PerkinElmer®). Data was analyzed and visualized using the Spotfire® software package.
WIZ Degradation Activity of Compounds (Table 1)
WIZ Amax reflects the DMSO-normalized, curve-fitted percentage of WIZ-HiBit remaining at 25 uM. It was calculated by normalizing […] controls to 100%, parametric curve fitting of the dose response data (10-point, 5-fold), followed by calculation of response at 25 uM using the fitted equation (nd=not determined).

T1 sequence (O95785 whole entry, the tested form may be a part): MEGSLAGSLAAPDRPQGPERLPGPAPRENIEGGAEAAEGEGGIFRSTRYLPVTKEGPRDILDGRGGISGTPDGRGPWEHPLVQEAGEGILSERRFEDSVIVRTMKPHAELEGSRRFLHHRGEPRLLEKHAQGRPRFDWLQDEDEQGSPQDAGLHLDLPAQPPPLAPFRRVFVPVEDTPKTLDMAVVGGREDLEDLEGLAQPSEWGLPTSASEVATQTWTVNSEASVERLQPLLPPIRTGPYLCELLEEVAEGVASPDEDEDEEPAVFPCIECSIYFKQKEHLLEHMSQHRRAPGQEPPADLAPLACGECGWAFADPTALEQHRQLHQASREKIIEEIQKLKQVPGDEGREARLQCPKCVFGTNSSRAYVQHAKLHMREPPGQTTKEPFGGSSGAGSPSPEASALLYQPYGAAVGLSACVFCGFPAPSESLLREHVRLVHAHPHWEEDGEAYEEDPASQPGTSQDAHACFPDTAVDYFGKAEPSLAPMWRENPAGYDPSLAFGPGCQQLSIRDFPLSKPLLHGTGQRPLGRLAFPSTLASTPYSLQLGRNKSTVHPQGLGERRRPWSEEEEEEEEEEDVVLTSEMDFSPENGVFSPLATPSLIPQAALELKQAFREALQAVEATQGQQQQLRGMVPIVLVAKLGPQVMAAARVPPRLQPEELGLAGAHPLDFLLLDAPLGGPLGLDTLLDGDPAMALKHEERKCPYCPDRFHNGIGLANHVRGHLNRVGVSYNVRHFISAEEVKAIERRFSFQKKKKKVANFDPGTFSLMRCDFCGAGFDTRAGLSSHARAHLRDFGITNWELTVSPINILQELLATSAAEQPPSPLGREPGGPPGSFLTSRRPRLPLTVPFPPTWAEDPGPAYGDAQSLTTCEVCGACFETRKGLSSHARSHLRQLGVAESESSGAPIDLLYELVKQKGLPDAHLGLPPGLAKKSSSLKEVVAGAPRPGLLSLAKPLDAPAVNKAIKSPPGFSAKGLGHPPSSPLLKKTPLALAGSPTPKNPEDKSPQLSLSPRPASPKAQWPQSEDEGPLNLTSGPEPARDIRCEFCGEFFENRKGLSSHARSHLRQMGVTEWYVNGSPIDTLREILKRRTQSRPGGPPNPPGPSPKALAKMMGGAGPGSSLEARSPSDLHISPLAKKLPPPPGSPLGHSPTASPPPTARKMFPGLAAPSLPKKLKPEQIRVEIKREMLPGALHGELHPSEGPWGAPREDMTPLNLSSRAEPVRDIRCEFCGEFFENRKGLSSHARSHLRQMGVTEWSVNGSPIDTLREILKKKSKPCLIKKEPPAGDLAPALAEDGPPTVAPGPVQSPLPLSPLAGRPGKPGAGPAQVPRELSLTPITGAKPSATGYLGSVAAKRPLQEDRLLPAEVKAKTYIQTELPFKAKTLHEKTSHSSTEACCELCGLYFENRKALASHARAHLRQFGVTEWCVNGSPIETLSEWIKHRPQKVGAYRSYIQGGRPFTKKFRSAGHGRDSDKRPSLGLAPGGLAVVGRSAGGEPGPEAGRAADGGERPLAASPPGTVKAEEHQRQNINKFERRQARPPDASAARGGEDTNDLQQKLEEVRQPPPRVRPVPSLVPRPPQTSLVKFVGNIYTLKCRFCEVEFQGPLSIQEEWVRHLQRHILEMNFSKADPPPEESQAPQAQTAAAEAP
T1 sequence (Q96SW2 whole entry, the tested form may be a part): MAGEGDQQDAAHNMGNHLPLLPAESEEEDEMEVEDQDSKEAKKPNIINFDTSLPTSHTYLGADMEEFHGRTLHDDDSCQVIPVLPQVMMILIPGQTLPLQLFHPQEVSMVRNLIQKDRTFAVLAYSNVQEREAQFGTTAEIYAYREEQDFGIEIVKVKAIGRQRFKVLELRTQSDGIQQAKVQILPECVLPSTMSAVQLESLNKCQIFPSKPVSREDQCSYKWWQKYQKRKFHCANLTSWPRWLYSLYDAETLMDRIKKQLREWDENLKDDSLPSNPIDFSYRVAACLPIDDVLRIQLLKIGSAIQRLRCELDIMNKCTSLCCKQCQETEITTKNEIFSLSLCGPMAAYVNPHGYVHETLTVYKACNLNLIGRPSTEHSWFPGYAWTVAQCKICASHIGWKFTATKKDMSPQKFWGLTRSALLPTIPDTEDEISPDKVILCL
T1 sequence (Q16531 whole entry partner, the tested form may be a part): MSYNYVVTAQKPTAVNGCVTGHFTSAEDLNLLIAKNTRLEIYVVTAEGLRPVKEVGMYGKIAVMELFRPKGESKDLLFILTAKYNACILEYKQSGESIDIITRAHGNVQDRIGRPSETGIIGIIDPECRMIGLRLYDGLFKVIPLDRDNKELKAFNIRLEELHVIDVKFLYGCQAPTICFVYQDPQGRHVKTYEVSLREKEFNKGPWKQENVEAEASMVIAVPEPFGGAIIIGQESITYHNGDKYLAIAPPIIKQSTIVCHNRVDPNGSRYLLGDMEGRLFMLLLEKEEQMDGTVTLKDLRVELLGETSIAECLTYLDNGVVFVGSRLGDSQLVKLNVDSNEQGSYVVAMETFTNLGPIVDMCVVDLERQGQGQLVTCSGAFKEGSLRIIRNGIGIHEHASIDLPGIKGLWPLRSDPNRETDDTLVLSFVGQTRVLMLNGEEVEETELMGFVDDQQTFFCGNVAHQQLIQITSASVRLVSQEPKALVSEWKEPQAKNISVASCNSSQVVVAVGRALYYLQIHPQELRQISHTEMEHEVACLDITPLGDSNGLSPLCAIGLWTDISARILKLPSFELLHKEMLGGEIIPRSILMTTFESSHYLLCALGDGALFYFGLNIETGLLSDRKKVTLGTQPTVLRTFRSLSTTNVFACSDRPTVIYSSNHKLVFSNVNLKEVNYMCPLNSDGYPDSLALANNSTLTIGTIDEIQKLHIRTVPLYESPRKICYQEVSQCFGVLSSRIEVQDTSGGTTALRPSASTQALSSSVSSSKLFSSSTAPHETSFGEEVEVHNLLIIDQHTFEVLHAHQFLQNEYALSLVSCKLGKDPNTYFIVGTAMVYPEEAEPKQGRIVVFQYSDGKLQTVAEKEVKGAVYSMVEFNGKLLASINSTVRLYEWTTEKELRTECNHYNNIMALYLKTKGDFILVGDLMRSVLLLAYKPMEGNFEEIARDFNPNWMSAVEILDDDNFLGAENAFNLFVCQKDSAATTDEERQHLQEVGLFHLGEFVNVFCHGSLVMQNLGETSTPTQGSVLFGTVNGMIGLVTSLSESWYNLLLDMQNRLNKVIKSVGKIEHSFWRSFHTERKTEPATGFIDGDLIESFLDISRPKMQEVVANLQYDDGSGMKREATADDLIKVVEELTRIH

SMILES | Dmax at 25 µM | remaining activity at 25 µM | DC50
CC(C)S(=O)(=O)N1CCN(Cc2ccn3ncc(N4CCC(=O)NC4=O)c3c2)CC1 [Example 185, 1-(5-((4-(isopropylsulfonyl)piperazin-1-yl)methyl)pyrazolo[1,5-a]pyridin-3-yl)dihydropyrimidine-2,4(1H,3H)-dione] | 47% | 53% | 582 nM
CC(c1cccnc1)N1CCC(Cc2ccn3ncc(N4CCC(=O)NC4=O)c3c2)CC1 (stereo not drawn) [Example 21, 1-(5-((1-(1-(pyridin-3-yl)ethyl)piperidin-4-yl)methyl)pyrazolo[1,5-a]pyridin-3-yl)dihydropyrimidine-2,4(1H,3H)-dione] | 78% | 22% | 25 nM
O=C1CCN(c2cnn3ccc(CN4C[C@@H]5C[C@H]4CN5Cc4cccnc4)cc23)C(=O)N1 [Example 237, 1-(5-(((1S,4S)-5-(pyridin-3-ylmethyl)-2,5-diazabicyclo[2.2.1]heptan-2-yl)methyl)pyrazolo[1,5-a]pyridin-3-yl)dihydropyrimidine-2,4(1H,3H)-dione] | 6% | 94% | > 25000 nM
CC1(C)CN(Cc2ccn3ncc(N4CCC(=O)NC4=O)c3c2)CCN1CC1CCOCC1 [Example 232, 1-(5-((3,3-dimethyl-4-((tetrahydro-2H-pyran-4-yl)methyl)piperazin-1-yl)methyl)pyrazolo[1,5-a]pyridin-3-yl)dihydropyrimidine-2,4(1H,3H)-dione] | 48% | 52% | 206 nM
O=C1CCN(c2cnn3ccc(CN4CCN(Cc5cccnc5)CC4)cc23)C(=O)N1 [Example 191, 1-(5-((4-(pyridin-3-ylmethyl)piperazin-1-yl)methyl)pyrazolo[1,5-a]pyridin-3-yl)dihydropyrimidine-2,4(1H,3H)-dione] | 50% | 50% | 683 nM
C[C@H]1C[C@H](Cc2ccn3ncc(N4CCC(=O)NC4=O)c3c2)CCN1CC1CC(F)(F)C1 [Example 152, 1-(5-(((2S,4R)-1-((3,3-difluorocyclobutyl)methyl)-2-methylpiperidin-4-yl)methyl)pyrazolo[1,5-a]pyridin-3-yl)dihydropyrimidine-2,4(1H,3H)-dione] | 81% | 19% | 910 nM
O=C1CCN(c2cnn3ccc(CC4CCN(Cc5cc(F)cc(C(F)(F)F)c5)CC4)cc23)C(=O)N1 [Example 51, 1-(5-((1-(3-fluoro-5-(trifluoromethyl)benzyl)piperidin-4-yl)methyl)pyrazolo[1,5-a]pyridin-3-yl)dihydropyrimidine-2,4(1H,3H)-dione] | 66% | 34% | 39 nM
C[C@H]1C[C@H](Cc2ccn3ncc(N4CCC(=O)NC4=O)c3c2)CCN1Cc1cccnc1 [Example 150] | 90% | 10% | 0.3 nM
Cc1ccccc1CN1CCN(Cc2ccn3ncc(N4CCC(=O)NC4=O)c3c2)CC1 [Example 167] | 57% | 43% | 286 nM
O=C1CCN(c2cnn3ccc(CN4CCN(CC5(C(F)(F)F)CC5)CC4)cc23)C(=O)N1 [Example 172] | 42% | 58% | 527 nM
O=C1CCN(c2cnn3ccc(CN4CCN(CC5CCCCC5)C(=O)C4)cc23)C(=O)N1 [Example 242, 1-(5-((4-(cyclohexylmethyl)-3-oxopiperazin-1-yl)methyl)pyrazolo[1,5-a]pyridin-3-yl)dihydropyrimidine-2,4(1H,3H)-dione] | 7% | 93% | 1600 nM
C[C@@H]1CN(Cc2ccn3ncc(N4CCC(=O)NC4=O)c3c2)CCN1CC1CCCCC1 [Example 214] | 65% | 35% | 151 nM
C[C@H]1C[C@H](Cc2ccn3ncc(N4CCC(=O)NC4=O)c3c2)CCN1C[C@H]1C[C@@H](F)[C@@H](F)C1 [Example 304, 1-(5-(((2S,4R)-1-(((1r,3R,4S)-3,4-difluorocyclopentyl)methyl)-2-methylpiperidin-4-yl)methyl)pyrazolo[1,5-a]pyridin-3-yl)dihydropyrimidine-2,4(1H,3H)-dione] | 87% | 13% | 2 nM
CO[C@H]1C[C@H](CN2CCN(Cc3ccn4ncc(N5CCC(=O)NC5=O)c4c3)C[C@@H]2C)C1 [Example 316, 1-(5-(((S)-4-(((1r,3S)-3-methoxycyclobutyl)methyl)-3-methylpiperazin-1-yl)methyl)pyrazolo[1,5-a]pyridin-3-yl)dihydropyrimidine-2,4(1H,3H)-dione] | 83% | 17% | 61 nM
COCC(F)(F)CN1CCN(Cc2ccn3ncc(N4CCC(=O)NC4=O)c3c2)C[C@@H]1C [Example 328, (S)-1-(5-((4-(2,2-difluoro-3-methoxypropyl)-3-methylpiperazin-1-yl)methyl)pyrazolo[1,5-a]pyridin-3-yl)dihydropyrimidine-2,4(1H,3H)-dione] | 52% | 48% | 338 nM
C[C@H]1CN(Cc2ccn3ncc(N4CCC(=O)NC4=O)c3c2)CCN1C1CC2(CCC2)C1 [Example 335] | 88% | 12% | 6 nM
O=C1CCN(c2cnn3ccc(CC4CCN(S(=O)(=O)Cc5ccccc5)CC4)cc23)C(=O)N1 [Example 88] | 78% | 22% | 181 nM
O=C1CCN(c2cnn3ccc(CC4CCN(CC56CC7CC(CC(C7)C5)C6)CC4)cc23)C(=O)N1 [Example 117] | 90% | 10% | 1 nM
CO[C@H]1C[C@@H](CN2CCC(Cc3ccn4ncc(N5CCC(=O)NC5=O)c4c3)CC2)C1 [Example 300, 1-(5-((1-(((1s,3s)-3-methoxycyclobutyl)methyl)piperidin-4-yl)methyl)pyrazolo[1,5-a]pyridin-3-yl)dihydropyrimidine-2,4(1H,3H)-dione] | 82% | 18% | 3 nM
C[C@H]1C[C@H](Cc2ccn3ncc(N4CCC(=O)NC4=O)c3c2)CCN1CC1CCC1 [Example 146] | 82% | 18% | 51 nM
O=C1CCN(c2cnn3ccc(CN4C[C@H]5CC[C@@H](C4)N5Cc4cccc(F)c4)cc23)C(=O)N1 [Example 251, 1-(5-(((1R,5S)-8-(3-fluorobenzyl)-3,8-diazabicyclo[3.2.1]octan-3-yl)methyl)pyrazolo[1,5-a]pyridin-3-yl)dihydropyrimidine-2,4(1H,3H)-dione] | 18% | 82% | 165 nM
O=C1CCN(c2cnn3ccc(CN4CCN(CC5CCC5)CC4)cc23)C(=O)N1 [Example 188, 1-(5-((4-(cyclobutylmethyl)piperazin-1-yl)methyl)pyrazolo[1,5-a]pyridin-3-yl)dihydropyrimidine-2,4(1H,3H)-dione] | 77% | 23% | 71 nM
O=C1CCN(c2cnn3ccc(CN4CCN5CCCC[C@H]5C4)cc23)C(=O)N1 [Example 262, (S)-1-(5-((octahydro-2H-pyrido[1,2-a]pyrazin-2-yl)methyl)pyrazolo[1,5-a]pyridin-3-yl)dihydropyrimidine-2,4(1H,3H)-dione] | 68% | 32% | 583 nM
Cc1ccc(CN2CCC(Cc3ccn4ncc(N5CCC(=O)NC5=O)c4c3)CC2)cn1 [Example 46, 1-(5-((1-((6-methylpyridin-3-yl)methyl)piperidin-4-yl)methyl)pyrazolo[1,5-a]pyridin-3-yl)dihydropyrimidine-2,4(1H,3H)-dione] | 69% | 31% | 58 nM
